# From ChEMBL document CHEMBL1155012, “Modulation of peripheral serotonin levels by novel tryptophan hydroxylase inhibitors for the potential treatment of functional gastrointestinal disorders” (J Med Chem, 2008)
# Activity calls are given as the source filed them. The calls are words filed in the database; no cut-off is given here.
# What was measured:
# [1] = target: T1, Tryptophan 5-hydroxylase 1 (Homo sapiens, UniProt P17752); test: Inhibition of TPH1
# T1 sequence (P17752 whole entry): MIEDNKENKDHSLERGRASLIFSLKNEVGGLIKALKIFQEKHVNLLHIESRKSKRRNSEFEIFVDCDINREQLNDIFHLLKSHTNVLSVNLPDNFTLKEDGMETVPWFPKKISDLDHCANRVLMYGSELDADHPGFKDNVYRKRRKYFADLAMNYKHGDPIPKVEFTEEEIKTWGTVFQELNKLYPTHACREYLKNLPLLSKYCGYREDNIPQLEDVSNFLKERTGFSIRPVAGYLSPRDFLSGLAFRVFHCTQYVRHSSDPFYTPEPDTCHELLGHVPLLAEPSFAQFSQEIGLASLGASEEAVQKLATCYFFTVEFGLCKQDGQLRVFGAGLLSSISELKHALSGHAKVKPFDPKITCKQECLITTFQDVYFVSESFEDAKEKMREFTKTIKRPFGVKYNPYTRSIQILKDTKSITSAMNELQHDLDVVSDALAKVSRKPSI
# [2] = target: T2, Tryptophan 5-hydroxylase 1 (Rattus norvegicus, UniProt P09810); test: Inhibition of TPH1 in RBL cells assessed as inhibition of serotonin biosynthesis; type: cell-based
# T2 sequence (P09810 whole entry): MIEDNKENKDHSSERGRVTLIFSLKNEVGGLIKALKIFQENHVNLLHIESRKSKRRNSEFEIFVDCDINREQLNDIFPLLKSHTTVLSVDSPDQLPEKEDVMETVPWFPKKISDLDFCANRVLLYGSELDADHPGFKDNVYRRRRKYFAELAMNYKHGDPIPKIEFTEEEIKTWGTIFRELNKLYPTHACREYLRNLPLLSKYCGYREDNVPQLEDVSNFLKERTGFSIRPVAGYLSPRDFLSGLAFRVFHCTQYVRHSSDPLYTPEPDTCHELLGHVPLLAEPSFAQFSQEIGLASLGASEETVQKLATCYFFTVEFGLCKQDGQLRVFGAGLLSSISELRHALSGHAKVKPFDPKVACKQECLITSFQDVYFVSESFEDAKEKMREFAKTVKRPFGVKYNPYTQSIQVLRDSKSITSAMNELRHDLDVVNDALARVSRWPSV
# [3] = Volume of distribution at steady state in C57 albino mouse 1 mg/kg, iv; type: ADME, organism-based; design: dose 1 mg/kg, route intravenous; settings: in vivo, read-out: Vdss
# [4] = Half life in C57 albino mouse at 1 mg/kg, iv; type: ADME, organism-based; design: dose 1 mg/kg, route intravenous; settings: in vivo
# [5] = Tmax in C57 albino mouse at 10 mg/kg, po; type: ADME, organism-based; design: dose 10 mg/kg, route oral; settings: in vivo
# [6] = Cmax in C57 albino mouse at 10 mg/kg, po; type: ADME, organism-based; design: dose 10 mg/kg, route oral; settings: in vivo
# [7] = AUC (0 to 6 hrs) in C57 albino mouse at 1 mg/kg, iv; type: ADME, organism-based; design: time < 6 hr, dose 1 mg/kg, route intravenous; settings: plasma
# [8] = AUC (0 to 24 hrs) in C57 albino mouse at 10 mg/kg, po; type: ADME, organism-based; design: time < 24 hr, dose 10 mg/kg, route oral; settings: plasma
# [9] = AUC (0 to infinity) in C57 albino mouse at 1 mg/kg, iv; type: ADME, organism-based; design: time infinity, dose 1 mg/kg, route intravenous; settings: plasma
# [10] = Oral bioavailability in C57 albino mouse at 10 mg/kg; type: ADME, organism-based; settings: in vivo
# [11] = Drug level in C57 albino mouse brain at 10 mg/kg, po after 2 hrs; type: ADME, organism-based; design: dose 10 mg/kg, route oral; settings: read-out: Drug uptake
# [12] = Drug level in C57 albino mouse brain at 10 mg/kg, po after 6 hrs; type: ADME, organism-based; design: dose 10 mg/kg, route oral; settings: read-out: Drug uptake
# [13] = Drug level in C57 albino mouse brain after 24 hrs; type: ADME, tissue-based; settings: read-out: Drug uptake
# Mus musculus [14] = test: Reduction of 5HT level in mouse intestine at 30 mg/kg, po twice a day; type: functional; design: scale not given: the % may be the effect or the level left
# Mus musculus [15] = test: Reduction of 5HT level in mouse intestine at 90 mg/kg, po twice a day; type: functional; design: scale not given: the % may be the effect or the level left
# Mus musculus [16] = test: Reduction of 5HT level in mouse colon at 30 mg/kg, po twice a day; type: functional; design: scale not given: the % may be the effect or the level left
# Mus musculus [17] = test: Reduction of 5HT level in mouse colon at 90 mg/kg, po twice a day; type: functional; design: scale not given: the % may be the effect or the level left
# [18] = Ratio of drug level in brain to plasma in C57 albino mouse at 10 mg/kg, po after 2 hrs; type: ADME, organism-based; design: dose 10 mg/kg, route oral; settings: read-out: BPR
# [19] = Ratio of drug level in brain to plasma in C57 albino mouse at 10 mg/kg, po after 6 hrs; type: ADME, organism-based; design: dose 10 mg/kg, route oral; settings: read-out: BPR
# [20] = Half life in C57 albino mouse at 10 mg/kg, po; type: ADME, organism-based; design: dose 10 mg/kg, route oral; settings: in vivo
# [21] = AUC (0 to infinity) in C57 albino mouse at 10 mg/kg, po; type: ADME, organism-based; design: time infinity, dose 10 mg/kg, route oral; settings: plasma
# [22] = Clearance in C57 albino mouse plasma at 1 mg/kg, iv; type: ADME, organism-based; design: dose 1 mg/kg, route intravenous
# Mus musculus [23] = test: Reduction of 5HT level in mouse intestine at 45 mg/kg, po twice a day after 3 days; type: functional, organism-based; design: dose 45 mg/kg
# Mus musculus [24] = test: Reduction of 5HT level in mouse intestine at 90 mg/kg, po twice a day after 3 days; type: functional, organism-based; design: dose 90 mg/kg
# Mus musculus [25] = test: Reduction of 5HT level in mouse brain at 45 mg/kg, po twice a day after 3 days; type: functional, organism-based; design: dose 45 mg/kg
# Mus musculus [26] = test: Reduction of 5HT level in mouse brain at 90 mg/kg, po twice a day after 3 days; type: functional, organism-based; design: dose 90 mg/kg
# RBL = test: Ratio of EC50 for TPH1 in RBL cells to IC50 for TPH1; type: cell-based
smiles,measurement,setting,value
N[C@@H](Cc1ccc(-c2cnc(NCC3CCc4ccccc4C3)cn2)cc1)C(=O)O (some centres not stated),IC50,[1],0.046 µM
Nc1nc(OC(c2ccccc2-c2ccco2)C(F)(F)F)cc(-c2ccc(C[C@H](N)C(=O)O)cc2)n1 (some centres not stated),IC50,[1],0.024 µM
same,EC50,[2],0.048 µM
Nc1nc(OC(c2sccc2-c2ccco2)C(F)(F)F)cc(-c2ccc(C[C@H](N)C(=O)O)cc2)n1 (some centres not stated),IC50,[1],0.054 µM
same,EC50,[2],0.063 µM
N[C@@H](Cc1ccc(-c2cnc(NCc3ccccn3)cn2)cc1)C(=O)O,IC50,[1],6.15 µM
Nc1nc(NCc2ccc3ccccc3c2)nc(-c2ccc(C[C@H](N)C(=O)O)cc2)n1,IC50,[1],0.024 µM
C[C@@H](Nc1nc(N)nc(-c2ccc(CC(N)C(=O)O)nc2)n1)c1ccc2ccccc2c1 (some centres not stated),IC50,[1],0.89 µM
COc1ccc(CNc2ccc(-c3ccc(C[C@H](N)C(=O)O)cc3)nn2)cc1OC1CCCC1,IC50,[1],0.97 µM
CCn1c2ccccc2c2cc(CNc3cnc(-c4ccc(C[C@H](N)C(=O)O)cc4)cn3)ccc21,IC50,[1],0.031 µM
Nc1nc(OC(c2ccc(-c3cccc(F)c3)cc2)C(F)(F)F)cc(-c2ccc(C[C@H](N)C(=O)O)cc2)n1 (some centres not stated),Vd,[3],0.73 L/kg
same,half-life,[4],3.26 h
same,Tmax,[5],3.25 h
same,Cmax,[6],641 nM
same,AUC(0-t) at 6 h,[7],6.2 µM·h
same,AUC(0-t) at 24 h,[8],6.09 µM·h
same,AUC(0-inf),[9],8.54 µM·h
same,bioavailability,[10],7.6%
same,concentration at 2 h,[11],6.05 nM
same,concentration at 6 h,[12],6.15 nM
same,concentration at 24 h,[13],0.38 nM
same,Activity,Mus musculus [14],55%
same,Activity,Mus musculus [15],70%
same,Activity,Mus musculus [16],24%
same,Activity,Mus musculus [17],36%
same,Kp at 2 h,[18],0.01
same,Kp at 6 h,[19],0.01
same,half-life,[20],5.98 h
same,AUC(0-inf),[21],6.5 µM·h
same,clearance,[22],0.2 L/h/kg
CCOC(=O)[C@@H](N)Cc1ccc(-c2cc(OC(c3ccc(-c4cccc(F)c4)cc3)C(F)(F)F)nc(N)n2)cc1 (some centres not stated),Activity,Mus musculus [23],Active
same,Activity,Mus musculus [24],Active
same,Activity,Mus musculus [25],inactive
same,Activity,Mus musculus [26],Active
C[C@@H](Nc1nc(N)nc(-c2ccc(CC(N)C(=O)O)c(F)c2)n1)c1ccc2ccccc2c1 (some centres not stated),IC50,[1],0.2 µM
N[C@@H](Cc1ccc(-c2cnc(NCc3ccc(-c4ccccc4)cc3)cn2)cc1)C(=O)O,IC50,[1],0.044 µM
C[C@@H](Nc1nc(N)nc(N2CCC(C[C@H](N)C(=O)O)CC2)n1)c1ccc2ccccc2c1,IC50,[1],0.77 µM
Nc1nc(OC(c2ccccc2-n2ccc(C(F)(F)F)n2)C(F)(F)F)cc(-c2ccc(C[C@H](N)C(=O)O)cc2)n1 (some centres not stated),IC50,[1],0.029 µM
same,EC50,[2],0.07 µM
CCn1c2ccccc2c2cc(CNc3ccc(-c4ccc(C[C@H](N)C(=O)O)cc4)nc3)ccc21,IC50,[1],> 10 µM
COc1ccc(CNc2cnc(-c3ccc(C[C@H](N)C(=O)O)cc3)cn2)cc1OC1CCCC1,IC50,[1],0.045 µM
C[C@@H](Nc1nc(N)nc(-c2ccc(C(N)CC(=O)O)cc2)n1)c1ccc2ccccc2c1 (some centres not stated),IC50,[1],3.77 µM
N[C@@H](Cc1ccc(-c2cnc(NCc3ccoc3)cn2)cc1)C(=O)O,IC50,[1],0.96 µM
C[C@@H](Nc1nc(N)nc(-c2ccn(C[C@H](N)C(=O)O)n2)n1)c1ccc2ccccc2c1,IC50,[1],12.6 µM
C[C@@H](Nc1nc(N)nc(-c2ccc(CC(C)(N)C(=O)O)cc2)n1)c1ccc2ccccc2c1 (some centres not stated),IC50,[1],11.1 µM
COc1ccc(CNc2ccc(-c3ccc(C[C@H](N)C(=O)O)cc3)cc2)cc1OC1CCCC1,IC50,[1],> 10 µM
N[C@@H](Cc1ccc(-c2cnc(NCc3cnc4ccccc4c3)cn2)cc1)C(=O)O,IC50,[1],0.19 µM
Cc1cccc(-c2ccccc2C(Oc2cc(-c3ccc(C[C@H](N)C(=O)O)cc3)nc(N)n2)C(F)(F)F)c1 (some centres not stated),IC50,[1],0.07 µM
same,EC50,[2],0.056 µM
N#Cc1ccc(CNc2cnc(-c3ccc(C[C@H](N)C(=O)O)cc3)cn2)cc1,IC50,[1],0.11 µM
N[C@@H](Cc1ccc(-c2cnc(NCC3CCCCC3)cn2)cc1)C(=O)O,IC50,[1],0.24 µM
C[C@@H](Oc1cc(-c2ccc(C[C@H](N)C(=O)O)cc2)nc(N)n1)c1ccc2ccccc2c1,IC50,[1],0.38 µM
same,EC50,[2],11 µM
COc1ccc(CNc2cnc(-c3ccc(C[C@H](N)C(=O)O)cc3)cn2)cc1OC,IC50,[1],0.069 µM
C[C@@H](Nc1nc(N)nc(-c2cccc(CC(N)C(=O)O)c2)n1)c1ccc2ccccc2c1 (some centres not stated),IC50,[1],> 11 µM
C[C@@H](Nc1cc(-c2ccc(C[C@H](N)C(=O)O)cc2)nc(N)n1)c1ccc2ccccc2c1,IC50,[1],0.032 µM
same,EC50,[2],1.7 µM
N[C@@H](Cc1ccc(-c2cnc(NCc3ccc4ccccc4c3)cn2)cc1)C(=O)O,IC50,[1],0.013 µM
Cc1ccccc1-c1ccccc1CNc1cnc(-c2ccc(C[C@H](N)C(=O)O)cc2)cn1,IC50,[1],0.04 µM
Nc1nc(OC(c2ccc3ccccc3c2)C(F)(F)F)cc(-c2ccc(C[C@H](N)C(=O)O)cc2)n1 (some centres not stated),Ratio,RBL,3
same,IC50,[1],0.18 µM
same,EC50,[2],0.51 µM
